Read-outs that look alike come from different tables or passages of the source. No end group written: not given here.
What was measured:
HIV-1JRFL [1] = assay type: cell-based; settings: primary macrophages
HIV-1BaL = HIV-1BaL replication in primary macrophages, p24 antigen ELISA; assay type: cell-based
HIV-1JRFL [2] = assay type: cell-based; settings: HeLa CD4+/CCR5+ cells
HIV-1JRFL [3] = assay type: cell-based; settings: Hos CD4+/CCR5+ cells; data not presented
[4] = system: CCR5 tropic HIV-1 primary isolates; experiment: Replication of CCR5 HIV-1 primary isolate in primary macrophages, p24; assay type: cell-based; settings: 200 ng/ml, p24 day 15
[5] = system: dual tropic HIV-1 primary isolate; experiment: Replication of dual tropic HIV-1 primary isolate in primary macrophages, p24; assay type: cell-based; settings: 200 ng/ml, p24 day 15
HIVVSV = assay type: cell-based, HIV-1; settings: 200 ng/ml
HIV-1VSV = assay type: cell-based
[6] = system: HIV-1 LTR controlled luciferase reporter gene mRNA; experiment: Real time RT-PCR of luciferase reporter gene mRNA in HIV-1VSV infected macrophages; assay type: cell-based; settings: 200 ng/ml for 24 hr; 72 hr post infection; vs control medium
Experimental: (§1) RNA was isolated from macrophages infected with HIVVSV for 72 hr and treated with medium alone or ProTα 24 hr post treatment using Absolutely RNA kit (Stratagene). Real time PCR was done at Mount Sinai Medical Center Core Facility using following primers: […]
for Luciferase reporter gene: sense-[…] antisense-[…].
(§2) Each assay was performed in triplicate. Quantification of each PCR product was expressed relative to -actin.

STAT1 [7] = experiment: STAT1 phosphorylation western blot, primary macrophages; assay type: cell-based; settings: 15 min, ProTα 1 μg/mL or 10% conditioned medium
Experimental: (§3) Whole cell extract from macrophages and Hela cells treated with 10% cell conditioned medium from CD8+ cells, ProTα or medium was prepared by adding 1×SDS Sample buffer (100 ul per 6 well plate). For western blot analyses, protein samples were treated with 2.5 M DTT or 2.5% 2-mercaptoethanol and separated by SDS-Page 4-20% Tris-Glycine gradient gels (Novex-Invitrogen Calif.). Following separation by SDS-Page, the gel was blotted onto PVDF membrane (Novex-Invitrogen San-Diego, Carlsbad, Calif.). After blocking with 5% nonfat milk the membrane was incubated with 1/1000 dilution of anti P-STAT-1 (Tyr701) (Cell Signaling Technology) for 24 hr at 4° C. in PBS. The membrane was washed in PBS with 0.05% Tween 20 and treated with 1/2000 diluted anti-rabbit antibodies labeled with horseradish […] (Amersham pharmacia UK). The membrane was washed in PBS with 0.05% tween 20 and Western blot chemiluminescence reagent was added.
(§4) To establish whether ProTα also induces STAT1 activation in primary macrophages and HeLa-CD4 cells, such cells were briefly (15 min) incubated with ProTα protein at 1 μg/mL or 10% cell conditioned medium after incubation for 2 hr in serum free medium to reduce baseline phosphorylation. A western blot of the electrophoresed total lysate of treated and untreated cells was probed with an antibody specific for STAT1 phosphorylated at tyrosine 701 (FIG. 8).

STAT1 [8] = experiment: STAT1 phosphorylation western blot, HeLa-CD4 cells; assay type: cell-based; settings: 15 min, ProTα 1 μg/mL or 10% conditioned medium
Experimental: as §3, §4

CMV promoter = experiment: Luciferase reporter under CMV promoter (VVCW/LBE) in macrophages; assay type: cell-based; settings: 200 ng/ml at 48-72 hr post infection; 24 hr post treatment
From the text: (§5) Inhibition of HIV-1 Gene Transcription by ProTα is not Selective for the HIV-1 LTR Promoter. To determine whether the effect of ProTα on HIV-1 gene transcription is specific for the LTR promoter, the present inventors used two other HIV derived lentiviral vectors carrying luciferase reporter genes under control of PGK (phosphoglycerate kinase-VVPW/LBE) or CMV (cytomegalovirus-VVCW/LBE) promoters (kindly provided by Dr. L. Gusella). Macrophages were infected with HIV-1VSV carrying the luciferase gene, under the control of LTR, PGK or CMV promoters. At 48-72 hr post infection when viral integration is completed, ProTα at 200 ng/ml was introduced.

PGK promoter = experiment: Luciferase reporter under PGK promoter (VVPW/LBE) in macrophages; assay type: cell-based; settings: 200 ng/ml at 48-72 hr post infection; 24 hr post treatment
From the text: as §5

mC2,C3-Ba-L = experiment: Replication of LTR-mutated mC2,C3-Ba-L in primary macrophages, p24; assay type: cell-based, HIV-1; settings: 200 ng/ml, p24 days 6-10, 3 donors
[9] = system: HIV-1 lab isolates (HIV-1BaL and HIV-1IIIB) or HIV-1 primary isolates; experiment: HIV-1 replication in primary CD4+ cells (lab and primary isolates); assay type: cell-based; settings: primary CD4+ cells; data not presented
IkBα mRNA = IkBα mRNA by real time PCR in macrophages carrying integrated HIV; assay type: cell-based; settings: data not presented
Experimental: as §1
for IkB sense-[…] anisense-[…].
as §2

IkBα protein = IkBα protein level in the nucleus of macrophages; assay type: cell-based; settings: 1 hr post treatment, data not presented
STAT2 = STAT2 phosphorylation in treated macrophages; settings: supernatant 10% by volume, data not presented
type one and/or two IFNs = experiment: Induction of type one and/or two IFN mRNA in primary macrophages; settings: 24 hr post treatment, data not presented
HDAC = experiment: Effect of sodium butyrate on ProTα activity in macrophages carrying integrated HIV-1; assay type: cell-based; settings: data not presented
From the text: Moreover, both IkBα and ProTα can bind to HDAC and form intracellular complexes with DNA (51, 52). Therefore investigating the functions of these transcriptional factors and studying the competitive binding of HDAC to IkB and/or ProTα and chromatin immunoprecipitation studies may help to further reveal how ProTα inhibits HIV-1 transcription in primary macrophages.

Compound: thymosin alpha 1 (Ac-SDAAVDTSSEITTKDLKEKKEVVEEAEN; UniProt P06454 2-29, looked up, fragment) [Tα1, chemically synthesized peptide homologous to the first 28 amino acids of ProTα, reference compound]
- activity against the HIVJRFL expressing luciferase reporter gene (HIV-1JRFL [1]; up to 1 μg/mL): no activity

Compound: prothymosin alpha [ProTα]
- reduction of viral p24 antigen (HIV-1BaL; 2 ng/mL rProTα, primary macrophages): greater than 80%
- inhibition of wild type (LTR) virus (HIV-1BaL; primary macrophages, 200 ng/ml, p24 days 6-10, 3 donors): 90-95%
- suppression of HIV-1BaL replication as measured by HIV-1 p24 antigen (HIV-1BaL; primary macrophages, dose response): dosage dependent suppression
- inhibition of the luciferase reporter gene of HIV-1JRFL (HIV-1JRFL [1]; dose response): dose dependent inhibition
- concentration at which anti-HIV-1 activity was exhibited (as low as) (HIV-1JRFL [1]; luciferase 72 hr post infection): 20 ng/mL
- anti-HIV-1JRFL activity (HIV-1JRFL [2]): did not, however, exhibit anti-HIV-1JRFL activity
- anti-HIV-1JRFL activity (HIV-1JRFL [3]): did not, however, exhibit anti-HIV-1JRFL activity
- replication of CCR5 HIV-1 primary isolate [4]: inhibited replication
- replication of dual tropic HIV-1 primary isolate [5]: inhibited replication
- reduction of expression of the reporter gene luciferase (HIVVSV; DCs treated 2 hr post infection): 90%
- inhibition of integrated proviral HIV-1 (HIVVSV; DCs treated 72 hr post infection): 65-75%
- effect on HIV-1 gene expression (luciferase) (HIV-1VSV): inhibit HIV-1 gene expression
- expression of luciferase reporter gene from LTR promoter (HIV-1VSV): inhibited expression
- reduction of HIV-1 gene expression (HIV-1VSV): 80%
- suppression of LTR controlled luciferase reporter gene mRNA levels [6]: 80%
- phosphorylation state of STAT1 (Tyr701) (STAT1 [7]): no effect
- phosphorylation state of STAT1 (Tyr701) (STAT1 [8]): no effect
- expression of luciferase reporter gene from CMV promoter (CMV promoter): inhibited expression
- expression of luciferase reporter gene from PGK promoter (PGK promoter): inhibited expression
- suppression of mutated (LTR) virus replication (mC2,C3-Ba-L): 60-80%
- suppression of replication [9]: varying from 30-40% suppression to no suppression
- induction of IkBα mRNA (IkBα mRNA): 10 fold
- level of IkBα protein in the nucleus (IkBα protein): increased substantially
- STAT 2 phosphorylation (STAT2): did not induce STAT 2 phosphorylation
- induction of type one and/or two IFN mRNA (type one and/or two IFNs): no induction

Compound: O=C(O)C(=O)CC(=O)c1cccn1Cc1ccc(F)cc1 [L-731 988, reference compound]
- suppression of virus replication by integrase inhibitor (HIV-1BaL; added at 2 hr post infection, replication competent viruses): did not completely suppress virus replication
- effect on HIV-1 gene expression (luciferase) (HIV-1VSV): no effect

Compound: Cc1cn([C@H]2C[C@H](N=[N+]=[N-])[C@@H](CO)O2)c(=O)[nH]c1=O [AZT, azidothymidine, reference compound]
- effect on HIV-1 gene expression (luciferase) (HIV-1VSV): no effect

Compound: CCCC(=O)[O-].[Na+] [sodium butyrate]
- reduction in ProTα activity (HDAC): 70-80%
